Data published in patent publication US20150105252A1, “SUBSTITUTED PYRAZOLES AS HERBICIDES” (E I DU PONT DE NEMOURS AND COMPANY, priority 2013, published 2015).

What was measured:
foxtail, giant [1] = assay: Test A preemergence; format: in vivo, Setaria faberii; settings: preemergence; for Foxtail, Giant plant response rating (0 to 100 scale): 125 g ai/ha, visual injury approx. 10 days after treatment; for Foxtail, Giant plant response rating: 500 g ai/ha, visual injury after approx. 10 days, 0 to 100 scale (0 no effect, 100 complete control)
How it was run: (§1)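 Ratings express plant response from 0 (no effect) to 100 (complete control), judged visually against untreated controls after approximately 10 days in the greenhouse. Preemergence applications were made as directed soil sprays onto seeded loam–sand mix, and postemergence applications onto 2–10 cm plants at one- to two-leaf stage.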

foxtail, giant [2] = assay: Test A postemergence; format: in vivo, Setaria faberii
How it was run: as §1

morningglory [3] = assay: Test A preemergence; format: in vivo, Ipomoea spp.; settings: preemergence; for Morningglory plant response rating (0 to 100 scale): 125 g ai/ha, visual injury approx. 10 days after treatment
How it was run: as §1

crabgrass, large [4] = assay: Test A preemergence; format: in vivo, Digitaria sanguinalis; settings: preemergence; for Crabgrass, Large plant response rating (0 to 100 scale): 125 g ai/ha, visual injury approx. 10 days after treatment; for Crabgrass, Large plant response rating: 500 g ai/ha, visual injury after approx. 10 days, 0 to 100 scale (0 no effect, 100 complete control)
How it was run: as §1

ducksalad = assay: Test B flood; format: in vivo, Heteranthera limosa; settings: 250 g ai/ha, visual rating on 0 to 100 scale (0 no effect, 100 complete control), 13 to 15 days
How it was run: (§2)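 Two-leaf-stage plants, pots flooded (3 cm above soil) and treated through the water, which stayed at that depth. After 13–15 days in greenhouse conditions, visual assessment versus controls: 0 is no effect, 100 complete control, dash means no result.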

pigweed [5] = assay: Test A postemergence; format: in vivo, Amaranthus retroflexus; settings: Postemergence
How it was run: as §1

barnyardgrass [6] = assay: Test A preemergence; format: in vivo, Echinochloa crus-galli; settings: preemergence; for Barnyardgrass plant response rating (0 to 100 scale, 0 is no effect, 100 is complete control): 125 g ai/ha, visual injury approx. 10 days after treatment; for Barnyardgrass plant response rating: 500 g ai/ha, visual injury after approx. 10 days, 0 to 100 scale (0 no effect, 100 complete control)
How it was run: as §1

morningglory [7] = assay: Test A postemergence; format: in vivo, Ipomoea spp.; settings: Postemergence
How it was run: as §1

sedge, umbrella = assay: Test B flood; format: in vivo, Cyperus difformis; settings: 250 g ai/ha, visual rating on 0 to 100 scale (0 no effect, 100 complete control), 13 to 15 days
How it was run: as §2

velvetleaf [8] = assay: Test A postemergence; format: in vivo, Abutilon theophrasti; settings: Postemergence
How it was run: as §1

corn [9] = assay: Test A preemergence; format: in vivo, Zea mays; settings: preemergence; for Corn plant response rating (0 to 100 scale): 125 g ai/ha, visual injury approx. 10 days after treatment; for Corn plant response rating: 500 g ai/ha, visual injury after approx. 10 days, 0 to 100 scale (0 no effect, 100 complete control)
How it was run: as §1

barnyardgrass [10] = assay: Test B flood; format: in vivo, Echinochloa crus-galli; settings: 250 g ai/ha, visual rating on 0 to 100 scale (0 no effect, 100 complete control), 13 to 15 days
How it was run: as §2

barnyardgrass [11] = assay: Test A postemergence; format: in vivo, Echinochloa crus-galli
How it was run: as §1

velvetleaf [12] = assay: Test A preemergence; format: in vivo, Abutilon theophrasti; settings: preemergence; for Velvetleaf plant response rating (0 to 100 scale): 125 g ai/ha, visual injury approx. 10 days after treatment
How it was run: as §1

rice = assay: Test B flood; format: in vivo, Oryza sativa; settings: 250 g ai/ha, visual rating on 0 to 100 scale (0 no effect, 100 complete control), 13 to 15 days
How it was run: as §2

wheat [13] = assay: Test A postemergence; format: in vivo, Triticum aestivum; settings: Postemergence
How it was run: as §1

corn [14] = assay: Test A postemergence; format: in vivo, Zea mays
How it was run: as §1

pigweed [15] = assay: Test A preemergence; format: in vivo, Amaranthus retroflexus; settings: preemergence; for Pigweed plant response rating (0 to 100 scale): 125 g ai/ha, visual injury approx. 10 days after treatment
How it was run: as §1

wheat [16] = assay: Test A preemergence; format: in vivo, Triticum aestivum; settings: preemergence; for Wheat plant response rating (0 to 100 scale): 125 g ai/ha, visual injury approx. 10 days after treatment
How it was run: as §1

crabgrass, large [17] = assay: Test A postemergence; format: in vivo, Digitaria sanguinalis
How it was run: as §1

[18] = Postemergence, 500 g ai/ha, 0 to 100 scale (0 no effect, 100 complete control)
[19] = postemergence, 125 g ai/ha, about 10 days, visual rating on 0 to 100 scale (0 no effect, 100 complete control)
[20] = 500 g ai/ha, visual injury after approx. 10 days, 0 to 100 scale (0 no effect, 100 complete control)
[21] = 125 g ai/ha, 0 to 100 scale, 0 no effect, 100 complete control
[22] = 500 g ai/ha, 0 to 100 scale (0 no effect, 100 complete control)
[23] = Postemergence, 125 g ai/ha, 0 to 100 scale, 0 no effect, 100 complete control

| SMILES | Foxtail, Giant plant response rating (0 to 100 scale) (foxtail, giant [1]) | Foxtail, Giant plant response rating (foxtail, giant [1]) | Foxtail, Giant plant response rating (foxtail, giant [2]; [18]) | Morningglory plant response rating (0 to 100 scale) (morningglory [3]) | Crabgrass, Large plant response rating (0 to 100 scale) (crabgrass, large [4]) | Crabgrass, Large plant response rating (crabgrass, large [4]) | Plant response rating, Ducksalad (ducksalad) | Pigweed plant response rating (pigweed [5]; [21]) | Pigweed plant response rating (pigweed [5]; [22]) | Barnyardgrass plant response rating (0 to 100 scale, 0 is no effect, 100 is complete control) (barnyardgrass [6]) | Barnyardgrass plant response rating (barnyardgrass [6]) | Morningglory plant response rating (morningglory [7]; [21]) | Morningglory plant response rating (morningglory [7]; [22]) | Plant response rating, Sedge, Umbrella (sedge, umbrella) | Velvetleaf plant response rating (velvetleaf [8]; [21]) | Velvetleaf plant response rating (velvetleaf [8]; [22]) | Corn plant response rating (0 to 100 scale) (corn [9]) | Corn plant response rating (corn [9]) | Plant response rating, Barnyardgrass (barnyardgrass [10]) | Barnyardgrass plant response rating (barnyardgrass [11]; [18]) | also measured |
| --- | --- | --- | --- | --- | --- | --- | --- | --- | --- | --- | --- | --- | --- | --- | --- | --- | --- | --- | --- | --- | --- |
| CCc1cc(C(=O)NCC(F)(F)F)nn1Cc1nc(C(F)(F)F)no1 [Compound 184] | 60 | 90 | 40 | 20 | 50 | 100 | 0 | 60 | 90 | 0 | 100 | 30 | 90 | 0 | 50 | 60 | 0 | 30 | 0 | 60 | Foxtail, Giant plant response rating (foxtail, giant [2]; [19]): 0; Morningglory plant response rating (morningglory [3]; [20]): 100; Barnyardgrass plant response rating (barnyardgrass [11]; [19]): 0; Velvetleaf plant response rating (0 to 100 scale) (velvetleaf [12]): 0; Velvetleaf plant response rating (velvetleaf [12]; [20]): 50; Plant response rating, Rice (rice): 0; Wheat plant response rating (wheat [13]; [21]): 0; Wheat plant response rating (wheat [13]; [22]): 20; Corn plant response rating (corn [14]; [18]): 60; Corn plant response rating (corn [14]; [19]): 0; Pigweed plant response rating (0 to 100 scale) (pigweed [15]): 60; Pigweed plant response rating (pigweed [15]; [20]): 100; Wheat plant response rating (0 to 100 scale) (wheat [16]): 0; Wheat plant response rating (wheat [16]; [20]): 20; Crabgrass, Large plant response rating (crabgrass, large [17]; [18]): 70; Crabgrass, Large plant response rating (crabgrass, large [17]; [19]): 0 |
| CCCNC(=O)c1cc(CC)n(Oc2cccc(C(F)(F)F)c2)n1 [Compound 216] | 10 | 40 | 40 | 0 | 60 | 90 | 20 | 20 | 30 | 0 | 80 | 20 | 70 | 30 | 0 | 40 | 0 | 10 | 0 | 70 | Foxtail, Giant plant response rating (foxtail, giant [2]; [23]): 0; Barnyardgrass plant response rating (barnyardgrass [11]; [23]): 0; Velvetleaf plant response rating (0 to 100 scale) (velvetleaf [12]): 0; Plant response rating, Rice (rice): 0; Wheat plant response rating (wheat [13]; [21]): 0; Wheat plant response rating (wheat [13]; [22]): 0; Corn plant response rating (corn [14]; [23]): 0; Corn plant response rating (corn [14]; [18]): 50; Pigweed plant response rating (0 to 100 scale) (pigweed [15]): 0; Wheat plant response rating (0 to 100 scale) (wheat [16]): 0; Crabgrass, Large plant response rating (crabgrass, large [17]; [23]): 20; Crabgrass, Large plant response rating (crabgrass, large [17]; [18]): 70 |
| CCc1cc(C(=O)NCC(F)(F)F)nn1Oc1cccc(C(F)(F)F)c1 [Compound 217] | 0 | 40 | 30 | 0 | 50 | 90 | 0 | 20 | 70 | 0 | 20 | 20 | 70 | 0 | 0 | 30 | 0 | 0 | 0 | 20 | Foxtail, Giant plant response rating (foxtail, giant [2]; [23]): 0; Barnyardgrass plant response rating (barnyardgrass [11]; [23]): 0; Velvetleaf plant response rating (0 to 100 scale) (velvetleaf [12]): 0; Plant response rating, Rice (rice): 0; Wheat plant response rating (wheat [13]; [21]): 0; Wheat plant response rating (wheat [13]; [22]): 0; Corn plant response rating (corn [14]; [23]): 0; Corn plant response rating (corn [14]; [18]): 20; Pigweed plant response rating (0 to 100 scale) (pigweed [15]): 20; Wheat plant response rating (0 to 100 scale) (wheat [16]): 0; Crabgrass, Large plant response rating (crabgrass, large [17]; [23]): 20; Crabgrass, Large plant response rating (crabgrass, large [17]; [18]): 70 |
| CCc1cc(C(=O)NCC(F)(F)F)nn1Oc1cccc(C(F)(F)F)c1 [Compound 218] | 0 | 40 | 30 | 0 | 10 | 80 | 0 | 50 | 80 | 0 | 40 | 50 | 100 | 0 | 0 | 40 | 0 | 0 | 0 | 20 | Foxtail, Giant plant response rating (foxtail, giant [2]; [23]): 20; Barnyardgrass plant response rating (barnyardgrass [11]; [23]): 0; Velvetleaf plant response rating (0 to 100 scale) (velvetleaf [12]): 0; Plant response rating, Rice (rice): 0; Wheat plant response rating (wheat [13]; [21]): 0; Wheat plant response rating (wheat [13]; [22]): 10; Corn plant response rating (corn [14]; [23]): 10; Corn plant response rating (corn [14]; [18]): 20; Pigweed plant response rating (0 to 100 scale) (pigweed [15]): 0; Wheat plant response rating (0 to 100 scale) (wheat [16]): 0; Crabgrass, Large plant response rating (crabgrass, large [17]; [23]): 20; Crabgrass, Large plant response rating (crabgrass, large [17]; [18]): 40 |
| CCCNC(=O)c1cc(CC)n(Oc2cccc(OC(F)(F)F)c2)n1 [Compound 219] | 0 | 20 | 60 | 0 | 40 | 90 | 30 | 20 | 60 | 0 | 20 | 10 | 70 | 75 | 0 | 90 | 0 | 0 | 0 | 40 | Foxtail, Giant plant response rating (foxtail, giant [2]; [23]): 20; Barnyardgrass plant response rating (barnyardgrass [11]; [23]): 10; Velvetleaf plant response rating (0 to 100 scale) (velvetleaf [12]): 0; Plant response rating, Rice (rice): 0; Wheat plant response rating (wheat [13]; [21]): 0; Wheat plant response rating (wheat [13]; [22]): 10; Corn plant response rating (corn [14]; [23]): 10; Corn plant response rating (corn [14]; [18]): 20; Pigweed plant response rating (0 to 100 scale) (pigweed [15]): 0; Wheat plant response rating (0 to 100 scale) (wheat [16]): 0; Crabgrass, Large plant response rating (crabgrass, large [17]; [23]): 20; Crabgrass, Large plant response rating (crabgrass, large [17]; [18]): 70 |
